Reference: ChEMBL document CHEMBL1201862, “PubChem BioAssay data set” (2004)
The source made the active and inactive calls. Rule as the data show it, for most assays here: actives have a measured EC50 and inactives only a lower limit.

Legend:
[1] = cells; format: functional
[2] = molecular target: T1, Zinc finger protein mex-5 (Caenorhabditis elegans, UniProt Q9XUB2); test: potency of MEX-5 RNA-binding blockers – biochemical, C. elegans, fluorescence polarization, dose response (AID 1960)
T1 sequence (Q9XUB2 whole entry): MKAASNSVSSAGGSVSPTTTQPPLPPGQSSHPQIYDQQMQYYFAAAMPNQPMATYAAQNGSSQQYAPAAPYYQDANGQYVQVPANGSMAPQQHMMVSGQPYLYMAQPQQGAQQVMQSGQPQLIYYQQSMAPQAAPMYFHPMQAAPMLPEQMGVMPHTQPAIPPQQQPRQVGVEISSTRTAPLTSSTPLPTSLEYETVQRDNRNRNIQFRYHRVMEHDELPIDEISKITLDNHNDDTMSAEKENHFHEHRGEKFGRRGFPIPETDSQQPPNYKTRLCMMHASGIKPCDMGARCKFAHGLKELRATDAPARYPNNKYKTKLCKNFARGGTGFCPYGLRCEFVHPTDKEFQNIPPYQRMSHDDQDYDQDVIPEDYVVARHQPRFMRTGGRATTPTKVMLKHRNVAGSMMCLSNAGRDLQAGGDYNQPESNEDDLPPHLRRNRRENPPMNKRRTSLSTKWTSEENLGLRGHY

[3] = molecular target: T2, RNA-binding protein pos-1 (Caenorhabditis elegans, UniProt G5EF15); test: disruptors of C. elegans POS-1 RNA interaction – biochemical, fluorescence polarization, dose response (AID 1964);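 also: purified POS-1 fused to maltose binding protein made in E. coli; potency of compounds blocking POS-1 binding to fluorescent RNA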
T2 sequence (G5EF15 whole entry): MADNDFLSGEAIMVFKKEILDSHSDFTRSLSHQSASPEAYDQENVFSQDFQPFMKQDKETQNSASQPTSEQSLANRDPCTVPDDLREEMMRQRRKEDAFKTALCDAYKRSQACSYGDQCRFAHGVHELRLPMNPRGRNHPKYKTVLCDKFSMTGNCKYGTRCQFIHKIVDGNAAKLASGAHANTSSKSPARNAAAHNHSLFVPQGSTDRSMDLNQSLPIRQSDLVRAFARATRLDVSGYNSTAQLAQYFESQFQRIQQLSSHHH

[4] = molecular target: T3, Protein RecA (Mycobacterium tuberculosis, UniProt P9WHJ3); test: Fluorescence Cell-Free Homogeneous Dose Retest to Identify Inhibitors of RecA-Intein Splicing Activity. [Related pubchem assays (depositor defined):AID2097, AID2223, AID489010, AID492950]; format: functional
T3 sequence (P9WHJ3 whole entry): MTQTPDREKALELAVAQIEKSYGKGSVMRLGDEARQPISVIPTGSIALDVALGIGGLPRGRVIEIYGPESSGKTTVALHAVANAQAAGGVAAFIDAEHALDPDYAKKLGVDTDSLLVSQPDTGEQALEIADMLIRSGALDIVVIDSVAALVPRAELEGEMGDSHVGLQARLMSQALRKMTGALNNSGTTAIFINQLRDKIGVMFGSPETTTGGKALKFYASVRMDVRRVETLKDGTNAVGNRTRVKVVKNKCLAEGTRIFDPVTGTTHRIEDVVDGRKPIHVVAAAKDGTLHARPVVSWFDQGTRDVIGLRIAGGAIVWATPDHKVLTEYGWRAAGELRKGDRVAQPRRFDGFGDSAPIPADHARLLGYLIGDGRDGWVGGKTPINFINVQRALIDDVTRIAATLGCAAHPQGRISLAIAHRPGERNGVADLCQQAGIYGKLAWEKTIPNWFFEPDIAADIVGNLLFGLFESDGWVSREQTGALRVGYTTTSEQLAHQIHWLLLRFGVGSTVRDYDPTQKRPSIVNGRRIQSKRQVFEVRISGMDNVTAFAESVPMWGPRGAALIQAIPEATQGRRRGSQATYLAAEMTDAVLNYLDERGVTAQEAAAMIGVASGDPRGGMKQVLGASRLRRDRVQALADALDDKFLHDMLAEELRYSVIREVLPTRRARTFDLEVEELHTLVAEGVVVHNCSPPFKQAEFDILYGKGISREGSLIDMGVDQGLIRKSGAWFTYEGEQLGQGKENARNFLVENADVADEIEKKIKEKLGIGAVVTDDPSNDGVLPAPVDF

[5] = molecular target: T4, Replicative DNA helicase DnaB (Mycobacterium tuberculosis, UniProt P9WMR3); test: DnaB intein splicing inhibitors, dose response, biochemical, cell-free fluorescence (AID 449749); format: functional
T4 sequence (P9WMR3 whole entry): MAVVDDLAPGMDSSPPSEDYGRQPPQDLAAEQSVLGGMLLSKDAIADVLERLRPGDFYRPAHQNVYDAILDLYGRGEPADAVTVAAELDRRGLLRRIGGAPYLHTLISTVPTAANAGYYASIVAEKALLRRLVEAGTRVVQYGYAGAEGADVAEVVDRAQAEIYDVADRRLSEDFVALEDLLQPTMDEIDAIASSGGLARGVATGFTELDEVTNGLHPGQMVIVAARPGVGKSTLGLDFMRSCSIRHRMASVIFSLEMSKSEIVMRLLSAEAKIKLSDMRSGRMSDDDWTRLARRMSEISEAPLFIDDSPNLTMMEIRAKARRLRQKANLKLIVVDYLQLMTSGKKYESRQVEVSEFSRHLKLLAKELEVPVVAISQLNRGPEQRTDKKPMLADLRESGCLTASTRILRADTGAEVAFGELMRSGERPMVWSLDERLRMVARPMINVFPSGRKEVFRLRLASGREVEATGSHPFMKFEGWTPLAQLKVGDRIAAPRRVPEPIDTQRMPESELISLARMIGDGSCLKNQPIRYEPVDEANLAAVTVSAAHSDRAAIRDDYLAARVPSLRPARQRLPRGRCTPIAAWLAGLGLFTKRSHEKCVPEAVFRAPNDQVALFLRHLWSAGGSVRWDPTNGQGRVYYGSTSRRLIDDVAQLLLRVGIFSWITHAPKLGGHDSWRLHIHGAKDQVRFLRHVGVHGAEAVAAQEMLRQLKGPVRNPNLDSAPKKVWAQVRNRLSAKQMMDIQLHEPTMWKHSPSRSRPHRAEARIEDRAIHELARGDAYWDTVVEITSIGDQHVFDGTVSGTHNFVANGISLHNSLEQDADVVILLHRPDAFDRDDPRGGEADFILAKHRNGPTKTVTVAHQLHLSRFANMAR

[6] = test system: Streptococcus; test: GAS UMAA2166 growth inhibition – luminescence, BacTiterGlo, counter-screen for streptokinase expression inhibitor project, dose response (AID 1915); format: functional, organism-based;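 also: potency for reduction of bacterial viability or growth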
[7] = Trypanosoma cruzi growth suppression in host cells – NIH3T3 host cells, beta-gal luminescence, confirmation (AID 2044); format: functional, cell-based;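 also: intracellular parasites grown in NIH/3T3 mouse fibroblasts as host cells; luminescent beta-galactosidase reporter signal from transgenic T. cruzi replicating inside host cells; inhibitors lower the luminescence signal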
[8] = test system: Streptococcus sp. 'group A'; test: Streptococcus pyogenes SK(-)GAS viability under kanamycin – luminescence, BacTiterGlo, confirmation, counter-screen for streptokinase expression inhibitor project, dose response (AID 1900); format: functional, organism-based
[9] = molecular target: T5, Streptokinase A (Streptococcus pyogenes serotype M1, UniProt P10520); test: viability-normalized secreted streptokinase activity reduction – plasminogen activation absorbance, OD405, dose response (AID 1914); format: functional, Streptococcus pyogenes M1 GAS;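 also: secreted streptokinase activity via plasminogen activation per viability signal from cell pellet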
T5 sequence (P10520 whole entry): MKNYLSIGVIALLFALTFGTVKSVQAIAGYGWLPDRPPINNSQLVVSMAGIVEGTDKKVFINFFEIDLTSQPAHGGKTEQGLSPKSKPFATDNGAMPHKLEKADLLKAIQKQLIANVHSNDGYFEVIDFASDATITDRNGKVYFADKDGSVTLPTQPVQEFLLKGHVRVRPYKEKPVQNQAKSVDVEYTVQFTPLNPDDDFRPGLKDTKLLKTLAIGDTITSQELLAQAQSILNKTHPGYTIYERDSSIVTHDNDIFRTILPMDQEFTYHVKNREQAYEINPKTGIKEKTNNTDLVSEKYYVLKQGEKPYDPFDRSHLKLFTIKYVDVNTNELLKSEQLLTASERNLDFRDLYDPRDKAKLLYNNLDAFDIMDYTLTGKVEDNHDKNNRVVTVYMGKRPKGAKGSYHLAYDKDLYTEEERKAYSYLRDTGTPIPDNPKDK

[10] = NIH3T3 cell viability loss – ATP luminescence, mouse fibroblasts, counter-screen, dose response (AID 2010); format: functional, cell-based;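 also: cells exposed to compound for about 90 hours before reading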
[11] = molecular target: T6, Corticotropin-releasing factor receptor 2/Corticotropin-releasing factor-binding protein (Homo sapiens, UniProt P24387+Q13324); test: activators of CRF receptor 2 with binding protein – uHTS hits, confirmation (AID 602473); format: functional; settings: read-out: EC50_Mean
T6 sequence (Q13324 whole entry): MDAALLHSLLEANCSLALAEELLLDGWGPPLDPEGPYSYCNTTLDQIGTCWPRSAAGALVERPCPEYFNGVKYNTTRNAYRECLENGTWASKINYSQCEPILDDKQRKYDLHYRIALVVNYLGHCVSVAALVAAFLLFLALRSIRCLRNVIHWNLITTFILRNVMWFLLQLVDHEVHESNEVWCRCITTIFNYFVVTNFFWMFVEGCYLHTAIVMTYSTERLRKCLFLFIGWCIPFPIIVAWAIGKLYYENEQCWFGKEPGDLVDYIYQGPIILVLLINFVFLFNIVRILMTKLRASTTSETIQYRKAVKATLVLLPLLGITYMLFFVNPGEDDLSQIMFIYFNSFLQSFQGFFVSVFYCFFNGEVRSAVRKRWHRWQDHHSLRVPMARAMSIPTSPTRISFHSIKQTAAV
T6 sequence (P24387 whole entry): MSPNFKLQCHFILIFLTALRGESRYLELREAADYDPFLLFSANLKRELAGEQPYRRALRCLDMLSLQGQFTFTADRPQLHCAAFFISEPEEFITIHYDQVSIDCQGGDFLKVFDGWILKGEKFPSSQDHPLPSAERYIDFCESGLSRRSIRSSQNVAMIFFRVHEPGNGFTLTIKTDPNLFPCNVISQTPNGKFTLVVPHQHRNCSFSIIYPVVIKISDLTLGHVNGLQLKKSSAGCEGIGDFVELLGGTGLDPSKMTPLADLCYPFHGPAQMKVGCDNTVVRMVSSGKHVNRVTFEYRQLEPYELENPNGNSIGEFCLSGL

Cc1ccc(NC(=O)C(=O)NNC(=O)c2ccccc2C)cc1Cl
IC50 [1]: 6.8 µM (active)

O=C(CN1CCC(n2nnc3cc(F)ccc32)CC1)NCCc1ccccc1
EC50 [2]: > 300 µM (not active) | EC50 [3]: > 300 µM (not active)

COc1ccc(C(=O)C2CCCN(C(=O)c3ccc(CSC)o3)C2)cc1F (stereo unspecified)
IC50 [1]: 41.5 µM (active)

COc1cc(C(C(=O)NC2CCCCC2)N(CCN2CCOCC2)C(=O)C2COc3ccccc3O2)cc(OC)c1OC (stereo unspecified)
EC50 [4]: > 380 µM (inactive) | AC50 [5]: > 380 µM (inactive)

CCC(C)(C)NC(=O)C(c1cccn1C)N(C(=O)Cn1nnc2ccccc21)c1ccc(OC)cc1 (stereo unspecified)
EC50 [2]: > 300 µM (not active) | EC50 [3]: > 300 µM (not active)

O=[N+]([O-])c1cc(S(=O)(=O)Nc2cccc(Cl)c2)ccc1N=Nc1c(O)[nH]c2ccccc12
EC50 [6]: 22.2 µM (active) | EC50 [7]: 1.31 µM (active) | EC50 [8]: 1.69 µM (active) | EC50 [9]: 27.4 µM (active) | EC50 [10]: > 60 µM (not active)

CC1(C)CC(=O)C2=C(C1)OC(N)=C(C#N)C21C(=O)N(CN2CCOCC2)c2ccccc21 (stereo unspecified)
EC50 [2]: > 300 µM (not active) | EC50 [3]: > 300 µM (not active)

COc1cccc(N2C(=O)NC(=O)/C(=C/c3ccc4c(c3)Cc3ccccc3-4)C2=O)c1
EC50 [2]: > 300 µM (not active) | EC50 [3]: > 300 µM (not active)

CCOc1cc(/C=C(\C#N)c2nc3ccccc3[nH]2)ccc1OC(C)C(=O)O (stereo unspecified)
EC50 [2]: 50.5 µM (active) | EC50 [3]: 78.5 µM (active)

Cc1n[nH]c2c1C(c1cccs1)C(C#N)=C(N)O2 (stereo unspecified)
EC50 [4]: 4.74 µM (active) | AC50 [5]: 24.7 µM (active)

CCOC(=O)COc1ccc2c(c1)C(=O)CC(C)(c1cccnc1)O2 (stereo unspecified)
IC50 [1]: 11.2 µM (active)

COc1ccccc1CNC(=O)CSc1nc(=O)n(Cc2ccncc2)c2c1CCC2
EC50 [6]: > 150 µM (not active) | EC50 [8]: > 150 µM (not active) | EC50 [9]: > 150 µM (not active)

COc1ccc(OCCOC(=O)c2cccs2)cc1
IC50 [1]: 23.5 µM (active)

CCOc1ccc(N2C(=O)NC(=O)/C(=C/Nc3ccc(N(CC)CC)cc3)C2=O)cc1
EC50 [11]: 10.4 µM (active) | EC50 [2]: 106 µM (active) | EC50 [3]: 151 µM (active)

COc1ccc(Nc2nc3ccccc3nc2NS(=O)(=O)c2cccs2)c(OC)c1
EC50 [2]: 49.7 µM (inconclusive) | EC50 [3]: 5.66 µM (active)

Brc1cc(-c2ccccc2)nc(-c2ccccc2)n1
EC50 [6]: > 150 µM (not active) | EC50 [8]: > 150 µM (not active) | EC50 [9]: > 150 µM (not active)

N#Cc1cc(NC2CCCC2)c([N+](=O)[O-])cc1C#N
EC50 [2]: 41.8 µM (active) | EC50 [3]: > 300 µM (not active)

CCc1nnc(NS(=O)(=O)c2ccc(NCc3cc(Cl)cc(Cl)c3O)cc2)s1
EC50 [6]: > 150 µM (not active) | EC50 [8]: 29.5 µM (active) | EC50 [9]: 50.8 µM (active)

CC1CCCC(/C=N/c2ccc(C(=O)O)c(O)c2)=C1O (stereo unspecified)
IC50 [1]: 0.2 µM (active)

COc1ccccc1-n1c(O)cc(=O)nc1SCC(=O)Nc1ccc(C)cc1
EC50 [6]: 118 µM (active) | EC50 [8]: 29.9 µM (active) | EC50 [9]: > 150 µM (not active)

Cc1ccc(/C=N/NC(=O)c2ccncc2)s1
IC50 [1]: 0.96 µM (active)

CN1C(=O)C(=Cc2cc3ccccc3nc2O)C(=O)N(C)C1=O
EC50 [2]: > 300 µM (not active) | EC50 [3]: > 300 µM (not active)

O=S(=O)(Nc1cccc(-c2ccc(N3CCOCC3)nn2)c1)c1ccc(Cl)c(Cl)c1
EC50 [6]: 116 µM (active) | EC50 [8]: 12.6 µM (active) | EC50 [9]: 23.5 µM (active)

C=CCOc1cccc(C2C(C(=O)c3ccc(C)o3)=C(O)C(=O)N2c2nnc(C)s2)c1 (stereo unspecified)
EC50 [2]: 210 µM (active) | EC50 [3]: > 300 µM (not active)
